Data as given in patent US8119642B2, “Structurally rigid dopamine D3 receptor selective ligands and process for making them” (The United States of America as represented by the …, priority 2002, dated 2012).
Read-outs that look alike come from different tables or passages of the source.

Assays:
[1] = target: T1, human D2-long dopamine receptor (Homo sapiens, UniProt P14416); assay: Binding in cloned human D2 receptors in HEK cells; details: 125I-IABN
T1 construct: expressed in transfected cells
T1 sequence (P14416 whole entry): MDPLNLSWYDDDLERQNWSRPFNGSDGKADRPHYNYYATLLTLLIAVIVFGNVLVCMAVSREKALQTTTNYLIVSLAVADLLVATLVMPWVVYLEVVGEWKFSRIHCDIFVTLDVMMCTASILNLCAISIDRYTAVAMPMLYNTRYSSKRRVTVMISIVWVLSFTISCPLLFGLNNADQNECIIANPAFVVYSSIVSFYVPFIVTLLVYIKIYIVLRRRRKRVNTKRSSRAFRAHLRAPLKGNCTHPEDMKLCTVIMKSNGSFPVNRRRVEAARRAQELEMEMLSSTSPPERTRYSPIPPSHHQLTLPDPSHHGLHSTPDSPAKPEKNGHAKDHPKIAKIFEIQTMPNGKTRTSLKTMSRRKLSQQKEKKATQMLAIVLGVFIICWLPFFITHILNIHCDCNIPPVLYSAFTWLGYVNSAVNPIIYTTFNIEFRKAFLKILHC
Description: (§1) Human dopamine D2-long (“D2”) and D3 ([…]) receptors were expressed in HEK cells. In brief, stably transfected HEK cells expressing the human D2-long and the D3 dopamine receptor were developed using the pIRES bicistronic expression vector (CLONTECH; Palo Alto, Calif.). […] For comparison, human dopamine D4 (“D4”) receptors were obtained from HEK 293 cells stably transfected with a PCR product o'f a human cDNA coding for the D4.4 form of the human D4 dopamine receptor.

[2] = target: T2, human D3 dopamine receptor (Homo sapiens, UniProt P35462); assay: Binding in cloned human D3 receptors in HEK cells; details: for D2/D3: ratio of D2 to D3 binding values
T2 construct: expressed in transfected cells
T2 sequence (P35462 whole entry): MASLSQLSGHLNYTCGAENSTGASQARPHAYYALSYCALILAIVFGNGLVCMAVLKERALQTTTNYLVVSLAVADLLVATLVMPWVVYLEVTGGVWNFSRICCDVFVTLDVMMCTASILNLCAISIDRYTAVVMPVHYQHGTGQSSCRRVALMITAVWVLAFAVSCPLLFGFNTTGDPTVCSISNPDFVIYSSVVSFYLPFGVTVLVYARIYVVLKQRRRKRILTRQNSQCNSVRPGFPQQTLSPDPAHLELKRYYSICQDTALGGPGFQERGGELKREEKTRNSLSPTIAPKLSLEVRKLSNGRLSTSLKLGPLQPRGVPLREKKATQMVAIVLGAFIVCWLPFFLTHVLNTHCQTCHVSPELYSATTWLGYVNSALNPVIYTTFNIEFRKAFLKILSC
Description: as §1

[3] = target: T3, D4.4 form of the human D4 dopamine receptor (Homo sapiens, UniProt P21917); assay: Binding in cloned human D4 receptors in HEK cells; details: cloned human D4.4 receptors in HEK 293 cells
T3 construct: expressed in transfected cells
T3 sequence (P21917 1-419): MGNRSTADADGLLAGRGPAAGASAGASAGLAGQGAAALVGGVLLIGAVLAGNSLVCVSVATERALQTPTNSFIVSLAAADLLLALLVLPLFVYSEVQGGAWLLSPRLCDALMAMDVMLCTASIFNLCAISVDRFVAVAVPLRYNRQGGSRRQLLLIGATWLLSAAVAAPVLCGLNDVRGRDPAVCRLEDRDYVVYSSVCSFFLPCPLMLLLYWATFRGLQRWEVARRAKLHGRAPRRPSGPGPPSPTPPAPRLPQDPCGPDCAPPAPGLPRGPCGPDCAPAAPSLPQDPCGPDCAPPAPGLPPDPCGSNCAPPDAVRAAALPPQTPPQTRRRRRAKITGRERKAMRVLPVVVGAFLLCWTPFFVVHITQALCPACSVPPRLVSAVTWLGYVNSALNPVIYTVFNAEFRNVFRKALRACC
Description: Human dopamine D2-long (“D2”) and D3 ([…]) receptors were expressed in HEK cells. In brief, stably transfected HEK cells expressing the human D2-long and the D3 dopamine receptor were developed using the pIRES bicistronic expression vector (CLONTECH; Palo Alto, Calif.). The level of expression of D2 or D3 receptors was determined to be greater than 2,000 fmoles/mg protein. For comparison, human dopamine D4 (“D4”) receptors were obtained from HEK 293 cells stably transfected with a PCR product o'f a human cDNA coding for the D4.4 form of the human D4 dopamine receptor. The density of binding sites is approximately 1000 fmol/mg protein.
Methods for performing in vitro dopamine receptor binding studies are described in Huang et al. J. Med. Chem. 44:1815-1826 (2001) and Luedtke et al. Synapse 38:438-439 (2000), the contents of which are hereby incorporated by reference. […] Therefore, ^125I-IABN appears to be a high affinity, selective antagonist at D2-like dopamine receptors.

D1a dopamine receptors = D1a dopamine receptors (Homo sapiens, UniProt P21728); details: cited from earlier work
Chain of D1a dopamine receptors (P21728 whole entry): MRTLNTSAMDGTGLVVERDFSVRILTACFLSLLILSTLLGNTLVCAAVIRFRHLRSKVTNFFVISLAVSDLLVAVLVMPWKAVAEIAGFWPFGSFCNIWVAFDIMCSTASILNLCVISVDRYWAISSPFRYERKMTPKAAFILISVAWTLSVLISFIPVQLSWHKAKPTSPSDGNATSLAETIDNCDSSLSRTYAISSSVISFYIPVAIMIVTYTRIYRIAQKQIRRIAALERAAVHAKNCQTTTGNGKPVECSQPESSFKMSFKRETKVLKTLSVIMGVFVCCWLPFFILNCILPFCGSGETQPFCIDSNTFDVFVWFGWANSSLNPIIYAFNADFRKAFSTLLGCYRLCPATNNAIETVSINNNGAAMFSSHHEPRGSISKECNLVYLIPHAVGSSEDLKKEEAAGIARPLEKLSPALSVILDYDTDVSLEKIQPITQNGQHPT

[4] = target: T4, human D4.4 dopamine receptors (Homo sapiens, UniProt P21917); details: HEK 293 cells; cited from earlier work
T4 construct: expressed in transfected cells; host or cells: HEK 293 cells
T4 sequence (P21917 1-419): T3 sequence (P21917 1-419)

sigma σ1 binding sites = details: cited from earlier work
sigma σ2 binding sites = details: cited from earlier work
hD3 = target: T5, hD3 (Homo sapiens, UniProt P35462); assay: D3 functional assay, stimulation of mitogenesis in CHO cells (agonist assay); format: cell-based; details: for EC50: [3H]thymidine, read-out: Agonist EC50 (nM) ± S.E.M.
T5 construct: expressed in transfected cells; host or cells: CHOp- cells, kept under G418
T5 sequence (P35462 whole entry): as the sequence (P35462 whole entry) above
Description: The cells were incubated at 37° C. in α-MEM with 10% FBS, 0.05% penicillin-streptomycin, and 200 μg/mL of G418. After 48 hours, the cells were rinsed twice with serum-free α-MEM and incubated for 24 hours at 37° C. In the functional assay for agonism, the medium was removed and replaced with 90 μl of serum-free α-MEM and 10 μl of test compound in sterile water; in the antagonist assay, the test compound was diluted in sterile water plus 30 nM quinpirole. After another 24-hour incubation at 37° C., 0.25 μCi of [^3H]thymidine was added to each well and the plates were further incubated for 2 hours at 37° C. The cells were then trypsinized, and the plates were filtered and counted as usual in the art. Quinpirole was run on every plate as an internal standard.

[5] = cloned human D3 receptors in HEK cells, 125I-IABN, read-out: D3 binding data

SMILES | Ki [1] [nM] | Ki [2, 5] [nM] | further results
O=C(NCC=CCN1CCN(c2cccc(Cl)c2Cl)CC1)c1ccc(I)cc1 [EEC 017, N-{4-[4-(2,3-Dichloro-phenyl)-piperazin-1-yl]-but-2-enyl}-4-iodo-benzamide] | 35.4 ± 7.6 | 4.2 ± 1.5 | D2/D3 [2]: 8
O=C(NC/C=C/CN1CCN(c2cccc(Cl)c2Cl)CC1)c1cccc(I)c1 [EEC 019] |  | 3.9 ± 1.2 | 
O=C(NC/C=C/CN1CCN(c2cccc(Cl)c2Cl)CC1)c1ccc([N+](=O)[O-])cc1 [EEC 027] |  | 0.6 ± 0.2 | Ki [3]: 461 ± 187 nM
O=C(NC/C=C/CN1CCN(c2cccc(Cl)c2Cl)CC1)c1cccc(Cl)c1 [EEC 063] |  | 2.1 ± 1.1 | 
COc1ccc(C(=O)NC/C=C/CN2CCN(c3cccc(Cl)c3Cl)CC2)cc1 [EEC 067] | 34.7 ± 11.4 |  | 
COc1cccc(C(=O)NC/C=C/CN2CCN(c3cccc(Cl)c3Cl)CC2)c1 [EEC 069] | 56.9 ± 19.1 | 4 ± 1.6 | 
COc1cc([125I])cc(C(=O)NC2CC3CCCC(C2)N3Cc2ccccc2)c1OC (stereo not drawn) [IABN] |  |  | affinity for D1a dopamine receptors (D1a dopamine receptors): low affinity; fold lower affinity at human D4.4 than at D2 and D3 receptors [4]: 7- to 10 fold; affinity for sigma σ1 binding sites (sigma σ1 binding sites): low affinity; affinity for sigma σ2 binding sites (sigma σ2 binding sites): low affinity
O=C(NCC#CCN1CCN(c2cccc(Cl)c2Cl)CC1)c1ccccc1 [JJC 2-062] | 491 ± 108 | 127 ± 10 | 
O=C(NC/C=C/CN1CCN(c2cccc(Cl)c2Cl)CC1)c1ccccc1 [JJC 2-068] |  | 0.6 ± 0.1 | EC50 (hD3): > 10000 nM
O=C(NC/C=C/CN1CCN(c2cccc(Cl)c2Cl)CC1)c1ccc2c(c1)Cc1ccccc1-2 [JJC 2-071] | 186 ± 8 | 3.4 ± 2.9 | % Max Stim. ± S.E.M. (hD3): 44.1 ± 0.9%
O=C(NCC#CCN1CCN(c2cccc(Cl)c2Cl)CC1)c1cccc2c1-c1ccccc1C2 [JJC 2-077] | 592 ± 27 | 318 ± 32 | 
O=C(NCC#CCN1CCN(c2cccc(Cl)c2Cl)CC1)c1ccc2c(c1)Cc1ccccc1-2 [JJC 2-078] | 1650 ± 692 | 41.5 ± 5.4 | 
O=C(NC/C=C\CN1CCN(c2cccc(Cl)c2Cl)CC1)c1ccccc1 [JJC 2-083] |  |  | EC50 (hD3): > 10000 nM
O=C(NC/C=C\CN1CCN(c2cccc(Cl)c2Cl)CC1)c1ccc2c(c1)Cc1ccccc1-2 [JJC 2-085] | 61.1 ± 19.2 | 3.8 ± 1.4 | 
O=C(NC/C=C/CN1CCN(c2cccc(Cl)c2Cl)CC1)c1ccc(Cl)cc1 [PG01007] | 25 ± 10.8 | 1.6 ± 1 | 
O=C(NC/C=C/CN1CCN(c2cccc(Cl)c2Cl)CC1)c1ccccc1Cl [PG01009] | 13.1 ± 5.5 |  | 

SMILES | Ki [1] [nM] | Ki [2, 5] [nM] | further results
O=C(NC/C=C/CN1CCN(c2cccc(Cl)c2Cl)CC1)c1ccc(F)cc1 [PG01012] | 8.1 ± 2.7 |  | 
O=C(NCC=CCN1CCN(c2cccc(Cl)c2Cl)CC1)c1ccc(O)cc1 [PG01015, N-{4-[4-(2,3-Dichloro-phenyl)-piperazin-1-yl]-but-2-enyl}-4-hydroxy-benzamide] | 13.7 ± 4.8 |  | Ki [3]: 356 ± 26.5 nM; Ki [2]: 0.4 nM; D2/D3 [2]: 34
O=C(NC/C=C/CN1CCN(c2cccc(Cl)c2Cl)CC1)c1ccccc1I [PG01018] | 12.7 ± 4.1 |  | 
O=C(NC/C=C/CN1CCN(c2cccc(Cl)c2Cl)CC1)c1cnc2ccccc2n1 [PG01020] | 70 ± 7.6 |  | Ki [3]: 1110 ± 555 nM
O=C(NC/C=C/CN1CCN(c2cccc(Cl)c2Cl)CC1)c1cccnc1 [PG01022] | 11.2 ± 5.6 |  | 
O=C(NC/C=C/CN1CCN(c2cccc(Cl)c2Cl)CC1)c1ccccc1O [PG01025] | 7.3 ± 3.2 |  | 
COc1ccccc1C(=O)NC/C=C/CN1CCN(c2cccc(Cl)c2Cl)CC1 [PG01027] | 5.3 ± 3 |  | 
O=C(NC/C=C/CN1CCN(c2cccc(Cl)c2Cl)CC1)c1ccccc1[N+](=O)[O-] [PG01029] | 10.5 ± 4.5 |  | 
O=C(NC/C=C/CN1CCN(c2cccc(Cl)c2Cl)CC1)c1cc2ccccc2s1 [PG01030] |  |  | Ki [2]: 1.3 ± 0.5 nM
O=C(NC/C=C/CN1CCN(c2cccc(Cl)c2Cl)CC1)c1ccccn1 [PG01034] | 31.2 ± 3.1 |  | Ki [2]: 2 ± 0.6 nM
O=C(NC/C=C/CN1CCN(c2cccc(Cl)c2Cl)CC1)c1ccncc1 [PG01035] | 17.2 ± 4.2 |  | 
O=C(NC/C=C/CN1CCN(c2cccc(Cl)c2Cl)CC1)c1ccc(-c2ccccn2)cc1 [PG01037] | 81.9 ± 20.7 |  | Ki [3]: 505 ± 62.5 nM
Nc1ccccc1C(=O)NC/C=C/CN1CCN(c2cccc(Cl)c2Cl)CC1 [PG01038] | 25.6 ± 6.8 | 2.7 ± 0.8 | 
O=C(NC/C=C/CN1CCN(c2cccc(Cl)c2Cl)CC1)c1ccc(-c2cccnc2)cc1 [PG01041] | 63.3 ± 16.5 |  | Ki [3]: 486 ± 157 nM
O=C(NC/C=C/CN1CCN(c2cccc(Cl)c2Cl)CC1)c1cc2ccccc2o1 [PG01055] | 101 ± 16.9 |  | 
